The text below walks through data of patent US8263605B2, “Modulators of muscarinic receptors” (Vertex Pharmaceutical Incorporated, priority 2006, dated 2012).

Each structure is given as a SMILES string.

One experiment deals with T1, M4 muscarinic receptor (Homo sapiens, UniProt P08173).
T1 construct: expressed in transfected cells; host or cells: CHO (M4-CHO)
T1 sequence (P08173 1-479): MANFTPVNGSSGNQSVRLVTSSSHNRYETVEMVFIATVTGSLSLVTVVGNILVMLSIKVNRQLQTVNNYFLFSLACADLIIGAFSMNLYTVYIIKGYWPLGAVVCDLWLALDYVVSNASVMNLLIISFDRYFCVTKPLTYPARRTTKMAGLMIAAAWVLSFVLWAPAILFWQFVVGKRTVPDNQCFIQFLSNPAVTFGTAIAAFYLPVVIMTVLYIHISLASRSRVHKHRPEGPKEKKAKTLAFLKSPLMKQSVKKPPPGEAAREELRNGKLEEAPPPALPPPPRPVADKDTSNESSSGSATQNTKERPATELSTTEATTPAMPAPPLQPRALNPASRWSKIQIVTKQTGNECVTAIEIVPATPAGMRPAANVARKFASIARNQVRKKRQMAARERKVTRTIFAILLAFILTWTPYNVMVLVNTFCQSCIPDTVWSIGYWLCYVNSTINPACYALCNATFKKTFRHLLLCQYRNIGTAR
The experiment is described as follows: Functional mobilization of intracellular calcium (FLIPR), M4-CHO cells. To be noted: for Emax: 100% efficacy is the maximum response obtained with the Carbachol control; for M4 Activity: CHO cells expressing M4, calcium mobilization. The experiment is classed as cell-based. In outline: (§1)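 Recombinant CHO cells loaded with Fluo-3 AM or Calcium 3 dye; fluorescence recorded 60 s on FLIPR in pH 7.4 buffer with 1 mM probenecid, 0.5% DMSO. Agonist mode: compound alone; antagonist mode: 15 min preincubation (or co-application) then carbachol at EC80. Efficacy relative to maximal carbachol response.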

The target in a further experiment is T2, M1 muscarinic receptor (Homo sapiens, UniProt P11229).
T2 construct: expressed in transfected cells; host or cells: CHO (M1-CHO)
T2 sequence (P11229 1-460): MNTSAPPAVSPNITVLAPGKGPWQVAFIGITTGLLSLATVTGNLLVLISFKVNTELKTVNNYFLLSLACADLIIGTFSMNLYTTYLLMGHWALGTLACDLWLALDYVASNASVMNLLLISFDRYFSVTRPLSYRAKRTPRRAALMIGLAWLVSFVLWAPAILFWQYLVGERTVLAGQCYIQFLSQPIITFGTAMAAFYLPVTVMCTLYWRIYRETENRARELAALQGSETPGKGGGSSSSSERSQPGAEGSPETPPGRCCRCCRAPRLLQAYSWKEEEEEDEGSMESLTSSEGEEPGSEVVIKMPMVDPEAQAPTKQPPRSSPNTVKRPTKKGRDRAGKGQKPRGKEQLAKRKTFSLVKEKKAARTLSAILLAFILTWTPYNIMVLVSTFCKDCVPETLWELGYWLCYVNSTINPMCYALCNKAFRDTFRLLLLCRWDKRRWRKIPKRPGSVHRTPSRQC
The experiment is described as follows: Functional mobilization of intracellular calcium (FLIPR), M1-CHO cells. Format: cell-based. To be noted: for Emax: 100% efficacy is the maximum response obtained with the Carbachol control; for M1 Activity: CHO cells expressing M1, calcium mobilization. In outline: as §1

Regarding `C#CCCOC(=O)N1CCC(N2CCC3(CC2)CN(C(=O)N(C)C)c2ccccc23)CC1` [compound 44], on M4 muscarinic receptor, the maximal response (Emax) lay within 25 to 100% and the “M4 Activity” value is “+++ (activity was measured to be less than 2.0 μM)”. In addition, on M1 muscarinic receptor, the maximum response (Emax) is 25 to 100% and the “M1 Activity” value is given as “+++ (activity was measured to be less than 2.0 μM)”.

In the case of `COC(=O)N1C2CCC1CC(N1CCC3(CC1)CN(C(=O)N(C)C)c1ccccc13)C2` (stereo not drawn) [compound 45], at M4 muscarinic receptor, the maximum response (Emax) lay within 25 to 100% and the “M4 Activity” value is on record as “+++ (activity was measured to be less than 2.0 μM)”. For the same compound, on M1 muscarinic receptor, the maximal response (Emax) lay in the range of 25 to 100% and the “M1 Activity” value is reported as “++ (activity was measured to be from 2.0 μM to 10.0 μM)”.

For the compound `CCOC(=O)N1C2CCC1CC(N1CCC3(CC1)CN(C(=O)N(C)C)c1ccccc13)C2` (stereo not drawn) [compound 46], on M4 muscarinic receptor, the maximum response (Emax) was 25 to 100% and the “M4 Activity” value is “+++ (activity was measured to be less than 2.0 μM)”. On M1 muscarinic receptor, the maximal effect (Emax) lay within 25 to 100% and the “M1 Activity” value is “+++ (activity was measured to be less than 2.0 μM)”.

As to `CCCOC(=O)N1C2CCC1CC(N1CCC3(CC1)CN(C(=O)N(C)C)c1ccccc13)C2` (stereo not drawn) [compound 47], on M4 muscarinic receptor, the Emax lay within 25 to 100% and the “M4 Activity” value was “+++ (activity was measured to be less than 2.0 μM)”. Moreover, on M1 muscarinic receptor, the maximum response (Emax) lay in the range of 25 to 100% and the “M1 Activity” value is “+++ (activity was measured to be less than 2.0 μM)”.

For `CC(C)OC(=O)N1C2CCC1CC(N1CCC3(CC1)CN(C(=O)N(C)C)c1ccccc13)C2` (stereo not drawn) [compound 48], at M4 muscarinic receptor, the Emax lay in the range of 25 to 100% and the “M4 Activity” value is “+++ (activity was measured to be less than 2.0 μM)”. Moreover, at M1 muscarinic receptor, the Emax was 25 to 100% and the “M1 Activity” value is given as “+++ (activity was measured to be less than 2.0 μM)”.

Turning to `CN(C)C(=O)N1CC2(CCN(C3CC4CCC(C3)N4C(=O)OCC(F)F)CC2)c2ccccc21` (stereo not drawn) [compound 49], at M4 muscarinic receptor, the Emax is 25 to 100% and the “M4 Activity” value was “+++ (activity was measured to be less than 2.0 μM)”. Further, at M1 muscarinic receptor, the Emax fell in the range of 25 to 100% and the “M1 Activity” value is given as “+++ (activity was measured to be less than 2.0 μM)”.

On to `COCCOC(=O)N1C2CCC1CC(N1CCC3(CC1)CN(C(=O)N(C)C)c1ccccc13)C2` (stereo not drawn) [compound 50], for which, at M4 muscarinic receptor, the Emax was in the range of 25 to 100% and the “M4 Activity” value is “+++ (activity was measured to be less than 2.0 μM)”. For the same compound, on M1 muscarinic receptor, the Emax lay in the range of 25 to 100% and the “M1 Activity” value is reported as “+++ (activity was measured to be less than 2.0 μM)”.

As for `C#CCCOC(=O)N1C2CCC1CC(N1CCC3(CC1)CN(C(=O)N(C)C)c1ccccc13)C2` (stereo not drawn) [compound 51], at M4 muscarinic receptor, the Emax was 25 to 100% and the “M4 Activity” value is listed as “+++ (activity was measured to be less than 2.0 μM)”. Moreover, at M1 muscarinic receptor, the maximum response (Emax) lay within 25 to 100% and the “M1 Activity” value is “+++ (activity was measured to be less than 2.0 μM)”.

Regarding `Cc1nsc(N2CCC(N3CCC4(CC3)CN(C(=O)N(C)C)c3ccccc34)CC2)n1` [compound 53], at M4 muscarinic receptor, the maximum response (Emax) is above 100% and the “M4 Activity” value was “+++ (activity was measured to be less than 2.0 μM)”. At M1 muscarinic receptor, the maximum response (Emax) was 25 to 100% and the “M1 Activity” value is “+++ (activity was measured to be less than 2.0 μM)”.

As for `COC(=O)N1CC[C@@H](CN2CCC3(CC2)CN(C(=O)N(C)C)c2ccccc23)C1` [compound 54], at M4 muscarinic receptor, the Emax lay within 25 to 100% and the “M4 Activity” value is “+++ (activity was measured to be less than 2.0 μM)”. Further, at M1 muscarinic receptor, the Emax is 25 to 100% and the “M1 Activity” value was “+++ (activity was measured to be less than 2.0 μM)”.

`CCCOC(=O)N1CC[C@@H](CN2CCC3(CC2)CN(C(=O)N(C)C)c2ccccc23)C1` [compound 55]: on M4 muscarinic receptor, the Emax was 25 to 100% and the “M4 Activity” value is “+++ (activity was measured to be less than 2.0 μM)”. Moreover, on M1 muscarinic receptor, the Emax is below 25% and the “M1 Activity” value is listed as “++ (activity was measured to be from 2.0 μM to 10.0 μM)”.

As for `CC(C)OC(=O)N1CC[C@@H](CN2CCC3(CC2)CN(C(=O)N(C)C)c2ccccc23)C1` [compound 56], on M4 muscarinic receptor, the Emax lay within 25 to 100% and the “M4 Activity” value is “+++ (activity was measured to be less than 2.0 μM)”. Besides, at M1 muscarinic receptor, the maximal response (Emax) was 25 to 100% and the “M1 Activity” value is “++ (activity was measured to be from 2.0 μM to 10.0 μM)”.

As for `CN(C)C(=O)N1CC2(CCN(C[C@@H]3CCN(C(=O)OCC(F)F)C3)CC2)c2ccccc21` [compound 57], on M4 muscarinic receptor, the Emax was in the range of 25 to 100% and the “M4 Activity” value is “+++ (activity was measured to be less than 2.0 μM)”. At M1 muscarinic receptor, the Emax lay in the range of 25 to 100% and the “M1 Activity” value is recorded as “+++ (activity was measured to be less than 2.0 μM)”.

Turning to `COCCOC(=O)N1CC[C@@H](CN2CCC3(CC2)CN(C(=O)N(C)C)c2ccccc23)C1` [compound 58], at M4 muscarinic receptor, the Emax lay within 25 to 100% and the “M4 Activity” value is reported as “+++ (activity was measured to be less than 2.0 μM)”. Further, at M1 muscarinic receptor, the maximum response (Emax) was in the range of 25 to 100% and the “M1 Activity” value was “++ (activity was measured to be from 2.0 μM to 10.0 μM)”.

Take `COC(=O)N1CC[C@H](CN2CCC3(CC2)CN(C(=O)N(C)C)c2ccccc23)C1` [compound 59]: on M4 muscarinic receptor, the maximal response (Emax) was in the range of 25 to 100% and the “M4 Activity” value was “+++ (activity was measured to be less than 2.0 μM)”. Further, on M1 muscarinic receptor, the maximum response (Emax) fell in the range of 25 to 100% and the “M1 Activity” value is “+++ (activity was measured to be less than 2.0 μM)”.

As for `CCOC(=O)N1CC[C@H](CN2CCC3(CC2)CN(C(=O)N(C)C)c2ccccc23)C1` [compound 60], at M4 muscarinic receptor, the Emax lay within 25 to 100% and the “M4 Activity” value is reported as “+++ (activity was measured to be less than 2.0 μM)”. For the same compound, on M1 muscarinic receptor, the maximum response (Emax) was 25 to 100% and the “M1 Activity” value is reported as “+++ (activity was measured to be less than 2.0 μM)”.

Turning to `CCCOC(=O)N1CC[C@H](CN2CCC3(CC2)CN(C(=O)N(C)C)c2ccccc23)C1` [compound 61], at M4 muscarinic receptor, the Emax was 25 to 100% and the “M4 Activity” value is given as “+++ (activity was measured to be less than 2.0 μM)”. Further, at M1 muscarinic receptor, the Emax was below 25% and the “M1 Activity” value is listed as “++ (activity was measured to be from 2.0 μM to 10.0 μM)”.

For the compound `CC(C)OC(=O)N1CC[C@H](CN2CCC3(CC2)CN(C(=O)N(C)C)c2ccccc23)C1` [compound 62], on M4 muscarinic receptor, the Emax lay in the range of 25 to 100% and the “M4 Activity” value is reported as “+++ (activity was measured to be less than 2.0 μM)”. Besides, at M1 muscarinic receptor, the maximal effect (Emax) lay within 25 to 100% and the “M1 Activity” value is reported as “++ (activity was measured to be from 2.0 μM to 10.0 μM)”.

For the compound `CN(C)C(=O)N1CC2(CCN(C[C@H]3CCN(C(=O)OCC(F)F)C3)CC2)c2ccccc21` [compound 63], on M4 muscarinic receptor, the Emax was in the range of 25 to 100% and the “M4 Activity” value is given as “+++ (activity was measured to be less than 2.0 μM)”. Moreover, on M1 muscarinic receptor, the Emax is 25 to 100% and the “M1 Activity” value is listed as “+++ (activity was measured to be less than 2.0 μM)”.

In the case of `COCCOC(=O)N1CC[C@H](CN2CCC3(CC2)CN(C(=O)N(C)C)c2ccccc23)C1` [compound 64], at M4 muscarinic receptor, the maximal effect (Emax) lay within 25 to 100% and the “M4 Activity” value was “+++ (activity was measured to be less than 2.0 μM)”. Also, at M1 muscarinic receptor, the Emax was 25 to 100% and the “M1 Activity” value is recorded as “++ (activity was measured to be from 2.0 μM to 10.0 μM)”.

In the case of `COC(=O)N1CCCC(N2CCC3(CC2)CN(C(=O)N(C)C)c2ccccc23)CC1` (stereo not drawn) [compound 67], at M4 muscarinic receptor, the Emax was 25 to 100% and the “M4 Activity” value is given as “+++ (activity was measured to be less than 2.0 μM)”. At M1 muscarinic receptor, the Emax lay in the range of 25 to 100% and the “M1 Activity” value is listed as “+++ (activity was measured to be less than 2.0 μM)”.
